Source: patent publication US20150051078A1, “Glyphosate tank mix adjuvant comprising a base selected from a carbonate and/or a phosphate” (priority 2012, published 2015)

Key:
[1] = Protocol: The volatility was determined by analyzing the loss of material by HLPL at 70° C. after 24 h at atmospheric pressure and the loss is summarized in Table 5. The application rate was 500 g/ha dicamba (free acid), 1000 g/ha potassium glyphosate, 300 g/ha Genamin® T050 (“Ad2”, 300 g/ha Preference® (“Ad3”) and optionally 250, 500 or 1000 g/ha K2CO3. Deionised water (hardness<1° dH) was used to prepare the samples. Dicamba BAPMA refers to the bis(3-aminopropyl)methylamine salt of dicamba.
[2] = test system: Soya (glycine max) Variant Deltapine, genetically engineered to resist glyphosate; format: in vivo; settings: conclusion from Table 4
Protocol: For the greenhouse tests, maize (cultivar Amadeo) and Chenopodium album was sown or potted in loamy sandy soil to a depth of 1-2 cm. When the plants had reached a growth height of 10 to 25 cm (around 10 to 21 days after sowing), the spray mixtures were applied to the plants in a spraying cabin.
The temperatures in the experimental period, which lasted for 3 to 4 weeks, were between 18-35° C. During this time, the experimental plants received optimum watering, with nutrients being supplied via the water used for watering.
The herbicidal activity was evaluated by awarding scores to the treated plants in comparison to the untreated control plants (Table 1 and 2). The evaluation scale ranges from 0% to 100% activity. 100% activity means the complete death at least of those parts of the plant that are above ground. Conversely, 0% activity means that there were no differences between treated and untreated plants.
The biological evaluation was made as described in Example 6. The tank mixes were applied at a application rate of 375 l/ha (125 or 250 g of glyphosate free acid/ha and 300 g of adjuvant/ha). The adjuvant Ad1 is an aqeuous solution of 200 g/l Genamin® T150 (a tallow fatty amine ethoxylate with 15 EO). The adjuvant Ad2 is Genamin® T050 (a tallow fatty amine ethoxylate with 5 EO).
Soya (glycine max) Variant Deltapine was genetically engineered to resist glyphosate.

Compound	Loss of dicamba, Loss (wt %) ([1]; 70° C., 24 h, atmospheric pressure, 500 g/ha dicamba (free acid), deionised water)	pH of tank mix ([1]; deionised water (hardness<1° dH))	phytotoxity effect on plants of addition of K2CO3 [2]
CN(CCCN)CCCN.COc1c(Cl)ccc(Cl)c1C(=O)O [Dicamba BAPMA, bis(3-aminopropyl)methylamine salt of dicamba]	<1	6.3	
O=C([O-])[O-].[K+].[K+] [Example K2CO3, K2CO3]			no phytotoxity effect
